From US10092534B2, “Composition for treating headaches” (BIOHIT OYJ, priority 2012, dated 2018)

Assays:
[1] = tested on: acetaldehyde in the saliva; assay: Salivary acetaldehyde during smoking while sucking L-cysteine tablets (gas chromatography of saliva samples); assay type: in vivo, human; conditions: for average salivary acetaldehyde contents immediately after smoking: five smokers, one cigarette in 5 minutes, placebo 191.2±48.5 μM
Experimental: Five smokers (of the age of 29±2.8) participated in a study, in which […] were smoked (with cleaning periods in between). While smoking each cigarette (in 5 minutes time), the voluntaries sucked tablets blindfold, containing a placebo, 1.25 mg, 2.5 mg, 5 mg, 10 mg or 20 mg of L-cysteine. The acetaldehyde in the saliva samples was analysed by gas chromatography after 0, 5, 10, 20 minutes from starting to smoke.

acetaldehyde from saliva = assay: Elimination of acetaldehyde from saliva during smoking by a cysteine lozenge (FIG. 3); assay type: in vivo, human; conditions: lozenge containing 5 mg

Row | Compound | average salivary acetaldehyde contents immediately after smoking ([1]; 5 mg L-cysteine sucking tablet) [µM] | inactivation of acetaldehyde in the saliva during smoking ([1]; 5 mg of L-cysteine delivered with a melting tablet) | average salivary acetaldehyde contents immediately after smoking ([1]; 10 mg L-cysteine sucking tablet) [µM] | average salivary acetaldehyde contents immediately after smoking ([1]; 20 mg L-cysteine sucking tablet) [µM] | reduction of the amount of acetaldehyde compared with the placebo ([1]; L-cysteine tablet of 1.25 mg, saliva, during smoking) | removal of acetaldehyde originating from tobacco from the saliva ([1]; L-cysteine tablets 5 mg, 10 and 20 mg, during smoking, FIG. 1) | elimination of acetaldehyde from saliva during smoking (acetaldehyde from saliva)
1 | N[C@@H](CS)C(=O)O [L-cysteine] | 0 | completely inactivated | 0 | 0 | about two thirds | removed from the saliva all of the acetaldehyde | totally eliminates acetaldehyde
2 | N[C@H](CS)C(=O)O [D-cysteine] | – | – | – | – | – | – | totally eliminates acetaldehyde
